Test results: article PMC7497988 (2020)

Columns and labels:
[1] = system: A3T3 (DNA, duplex) CGCGAAATTTCGCG; experiment: ITC; details: Na+ (10 mM sodium phosphate, 10 mM NaCl); buffer A pH 7.5, 25 °C; TC into 40 μM A3T3; single site model
[2] = system: (AT)2 (DNA, duplex) CGCGATATCGCG; experiment: absorption and fluorescence titration; details: Na+ (10 mM sodium phosphate, 10 mM NaCl); buffer A pH 7.5, 25 °C; minor groove at 1:1, intercalation at low [DNA]/[TC]
[3] = system: t-(AT)2 (DNA, duplex) ATATCGCGATAT; experiment: absorption and fluorescence titration; details: Na+ (10 mM sodium phosphate, 10 mM NaCl); buffer A pH 7.5, 25 °C; mixed intercalation and incomplete groove binding
[4] = system: AT (DNA, duplex) CGCGATCGCG; experiment: absorption and fluorescence titration; details: Na+ (10 mM sodium phosphate, 10 mM NaCl); buffer A pH 7.5, 25 °C; mixed intercalation and incomplete groove binding
[5] = system: CG (DNA, duplex) CGCGCGCGCGCG; experiment: absorption titration, NMR line broadening; details: Na+ (10 mM sodium phosphate, 10 mM NaCl); buffer A pH 7.5, 25 °C; intercalation only, almost no fluorescence enhancement
[6] = system: A2T2 (DNA, duplex) CGCGAATTCGCG; experiment: absorption, fluorescence and NMR titration; details: Na+ (10 mM sodium phosphate, 10 mM NaCl); buffer A pH 7.5, 25 °C; minor groove at 1:1, intercalation at low [DNA]/[TC]

Kd [1]: 2900 nM
binding [2]: yes
binding [3]: yes
binding [4]: yes
binding [5]: yes
binding [6]: yes
Structure (SMILES): CCN(CC)c1ccc2cc(/C=C/c3sc4ccccc4[n+]3C)c(=O)oc2c1
